Target: cAMP-specific 3′,5′-cyclic phosphodiesterase 4B (PDE4B) (Homo sapiens, UniProt Q07343)
Sequence (Q07343 whole entry): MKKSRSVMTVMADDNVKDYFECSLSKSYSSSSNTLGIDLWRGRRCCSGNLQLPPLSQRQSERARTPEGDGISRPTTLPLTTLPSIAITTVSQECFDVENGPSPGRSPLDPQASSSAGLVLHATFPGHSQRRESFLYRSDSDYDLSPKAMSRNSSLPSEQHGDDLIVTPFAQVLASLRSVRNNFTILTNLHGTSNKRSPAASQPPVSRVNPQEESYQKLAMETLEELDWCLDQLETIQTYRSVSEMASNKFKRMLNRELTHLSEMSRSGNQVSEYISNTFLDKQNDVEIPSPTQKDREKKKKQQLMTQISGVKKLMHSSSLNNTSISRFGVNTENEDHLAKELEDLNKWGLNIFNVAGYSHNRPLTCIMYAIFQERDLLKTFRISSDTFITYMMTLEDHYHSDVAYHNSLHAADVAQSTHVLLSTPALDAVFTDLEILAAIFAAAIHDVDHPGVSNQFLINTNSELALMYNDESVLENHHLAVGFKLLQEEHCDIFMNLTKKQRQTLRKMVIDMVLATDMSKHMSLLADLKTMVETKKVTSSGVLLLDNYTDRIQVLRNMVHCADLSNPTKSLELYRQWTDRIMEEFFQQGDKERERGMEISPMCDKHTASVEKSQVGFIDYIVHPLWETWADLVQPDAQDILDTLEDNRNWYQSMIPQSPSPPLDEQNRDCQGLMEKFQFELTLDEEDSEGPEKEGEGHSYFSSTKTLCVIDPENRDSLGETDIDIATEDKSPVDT

COc1ccc(C2CNC(=O)C2)cc1OC1CCCC1 (stereo not shown) [roliparm]
inkjet-printed paper-based competitive FRET cAMP assay of PDE4B inhibition (IM50): 2.46e-13 mol

Reference: article PMC5766618, “Paper-based inkjet bioprinting to detect fluorescence resonance energy transfer for the assessment of anti-inflammatory activity” (Scientific Reports, 2018)
